This note sets out measurements from patent publication US20210277020A1, “HETEROCYCLIC COMPOUNDS AS MONOACYLGLYCEROL LIPASE INHIBITORS” (Hoffmann-La Roche Inc., priority 2018, published 2021).

This assay deals with T1, MAGL (Homo sapiens, UniProt Q99685).
T1 sequence (Q99685 1-303): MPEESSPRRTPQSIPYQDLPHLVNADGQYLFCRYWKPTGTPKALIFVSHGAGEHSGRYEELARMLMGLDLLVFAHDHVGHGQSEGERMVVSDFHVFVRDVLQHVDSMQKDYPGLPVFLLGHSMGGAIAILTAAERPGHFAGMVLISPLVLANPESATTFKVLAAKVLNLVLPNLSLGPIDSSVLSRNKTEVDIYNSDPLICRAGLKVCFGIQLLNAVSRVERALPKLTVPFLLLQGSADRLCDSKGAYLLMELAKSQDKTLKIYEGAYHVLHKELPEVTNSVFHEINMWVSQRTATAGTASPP
Briefly: 2-AG assay: MAGL inhibition followed by hydrolysis of 2-arachidonoylglycerol to arachidonic acid, mass spectrometry. The class given is biochemical. To be noted: measured in 2-AG assay (footnote [a]); substrate 2-arachidonoylglycerol 8 μM, 30 min at RT. From the text:
Alternatively, compounds were profiled for MAGL inhibitory activity by determining the enzymatic activity by following the hydrolysis of the natural substrate, 2-arachidonoylglycerol, resulting in arachidonic acid, which can be followed by mass spectrometry. This assay is hereinafter abbreviated “2-AG assay”.
Detection by mass spectrometry in the present 2-AG assay has the advantage over known optical assays that the natural enzyme substrate, 2-arachidonoylglycerol, can be used instead of structurally unrelated compounds needed for optical readouts (such as 4-NPA). It thereby delivers more relevant data for activity determination, reduces false positives and generally adds to data quality. In addition, this assay reduces the analysis time from about 10 minutes per sample with standard methods to under 10 seconds per sample. This allows for using the present 2-AG assay in a method for high throughput screening of compounds for their MAGL inhibitory activity.
The 2-AG assay was carried out in 384 well assay plates (PP, Greiner Cat #784201) in a total volume of 20 μL. Compound dilutions were made in 100% DMSO (VWR Chemicals 23500.297) in a polypropylene plate in 3-fold dilution steps to give a final concentration range in the assay from 12.5 μM to […]. 0.25 μL compound dilutions (100% DMSO) were added to 9 μL MAGL in assay buffer (50 mM TRIS (GIBCO, 15567-027), 1 mM EDTA (Fluka, 03690-100 mL), 0.01% (v/v) Tween. After shaking, the plate was incubated for 15 min at RT. To start the reaction, 10 μL 2-arachidonoylglycerol in assay buffer was added. The final concentrations in the assay was […] and 8 μM 2-arachidonoylglyerol. After shaking and 30 min incubation at RT, the reaction was quenched by the addition of 40 μL of acetonitrile containing 4 μM of d8-arachidonic acid. The amount of arachidonic acid was traced by an online SPE system (Agilent Rapidfire) coupled to a triple quadrupole mass spectrometer (Agilent 6460). A C18 SPE cartridge (G9205A) was used in an acetonitrile/water liquid setup. The mass spectrometer was operated in negative electrospray mode following the mass transitions 303.1→259.1 for arachidonic acid and 311.1→267.0 for d8-arachidonic acid. The activity of the compounds was calculated based on the ratio of intensities [arachidonic acid/d8-arachidonic acid].
In a preferred embodiment, the method for determining the MAGL inhibitory activity of a test compound according to the invention, comprises: • (i) providing a solution of a test compound; • (ii) adding the solution of step (i) to a solution of MAGL; • (iii) shaking the mixture obtained from step (ii); • (iv) incubating the mixture obtained from step (iii); • (v) adding a solution of 2-arachidonoylglycerol; • (vi) incubating the mixture obtained from step (v); • (vii) adding a solution of d8-arachidonic acid; and • (viii) determining the ratio of intensities arachidonic acid/d8-arachidonic acid using a mass spectrometer.
`O=C1CO[C@H]2CCN(C(=O)N3CC(Sc4ccc(C(F)(F)F)cc4Cl)C3)C[C@H]2N1` [Example 143, (4aR,8aS)-6-[3-[2-Chloro-4-(trifluoromethyl)phenyl]sulfanylazetidine-1-carbonyl]-4,4a,5,7,8,8a-hexahydropyrido[4,3-b][1,4]oxazin-3-one] gave an IC50 of 105 nM.

For `O=C1CO[C@H]2CCN(C(=O)N3CC(C#Cc4ccc(OC(F)F)cc4)C3)C[C@H]2N1` [Example 177, (4aR,8aS)-6-[3-[2-[4-(Difluoromethoxy)phenyl]ethynyl]azetidine-1-carbonyl]-4,4a,5,7,8,8a-hexahydropyrido[4,3-b][1,4]oxazin-3-one], the IC50 worked out at 22 nM.

`O=C1CO[C@H]2CCN(C(=O)N3CC(C#Cc4c(Cl)cccc4Cl)C3)C[C@H]2N1` [Example 157, (+)-(4aR,8aS)-6-(3-((2,6-Dichlorophenyl)ethynyl)azetidine-1-carbonyl)hexahydro-2H-pyrido[4,3-b][1,4]oxazin-3(4H)-one] displayed an IC50 of 5 nM.

The compound `Cc1c(F)cccc1C#CC1CN(C(=O)N2CC[C@@H]3OCC(=O)N[C@@H]3C2)C1` [Example 168, (4aR,8aS)-6-[3-[2-(3-Fluoro-2-methylphenyl)ethynyl]azetidine-1-carbonyl]-4,4a,5,7,8,8a-hexahydropyrido[4,3-b][1,4]oxazin-3-one] registered an IC50 of 6 nM.

As to `O=C1CO[C@H]2CCN(C(=O)N3CC(C#Cc4ccc(Cl)cc4Cl)C3)C[C@H]2N1` [Example 134, (+)-(4aR,8aS)-6-(3-((2,4-Dichlorophenyl)ethynyl)azetidine-1-carbonyl)hexahydro-2H-pyrido[4,3-b][1,4]oxazin-3(4H)-one], the IC50 came to 5 nM.

The compound `O=C1CO[C@H]2CCN(C(=O)N3CCC(C#Cc4ncccc4Cl)CC3)C[C@H]2N1` [Example 127, (+)-(4aR,8aS)-6-[4-[2-(3-Chloropyridin-2-yl)ethynyl]piperidine-1-carbonyl]-4,4a,5,7,8,8a-hexahydropyrido[4,3-b][1,4]oxazin-3-one] registered an IC50 of 308 nM.

For `O=C1CO[C@H]2CCN(C(=O)N3CCC(C#Cc4ccccc4C(F)(F)F)CC3)C[C@H]2N1` [Example 192, (4aR,8aS)-6-(4-((2-(Trifluoromethyl)phenyl)ethynyl)piperidine-1-carbonyl)hexahydro-2H-pyrido[4,3-b][1,4]oxazin-3(4H)-one], the midpoint of inhibition, the IC50, lay at 18 nM.

Take `O=C1CO[C@H]2CCN(C(=O)N3CC([S+]([O-])c4ccc(C(F)(F)F)cc4Cl)C3)C[C@H]2N1` (mixture of isomers) [Example 145, (4aR,8aS)-6-[3-[2-Chloro-4-(trifluoromethyl)phenyl]sulfinylazetidine-1-carbonyl]-4,4a,5,7,8,8a-hexahydropyrido[4,3-b][1,4]oxazin-3-one]: the midpoint of inhibition, the IC50, lay at 5620 nM.

`N#CC1(c2ccc(C#CC3CN(C(=O)N4CC[C@@H]5OCC(=O)N[C@@H]5C4)C3)cc2)CC1` [Example 178, 1-[4-[2-[1-[(4aR,8aS)-3-Oxo-4,4a,5,7,8,8a-hexahydropyrido[4,3-b][1,4]oxazine-6-carbonyl]azetidin-3-yl]ethynyl]phenyl]cyclopropane-1-carbonitrile] gave an IC50 of 56 nM.

The compound `O=C1CO[C@H]2CCN(C(=O)N3CC(C#Cc4ccc(C(F)(F)F)cc4F)C3)C[C@H]2N1` [Example 158, (4aR,8aS)-6-[3-[2-[2-Fluoro-4-(trifluoromethyl)phenyl]ethynyl]azetidine-1-carbonyl]-4,4a,5,7,8,8a-hexahydropyrido[4,3-b][1,4]oxazin-3-one] gave an IC50 of 5 nM.

With `O=C1CO[C@H]2CCN(C(=O)N3CC(CNC(c4ccc(F)cc4)C(F)(F)F)C3)C[C@H]2N1` (stereo partly drawn) [Example 106, (4aR,8aS)-6-[3-[[[2,2,2-Trifluoro-1-(4-fluorophenyl)ethyl]amino]methyl]azetidine-1-carbonyl]-4,4a,5,7,8,8a-hexahydropyrido[4,3-b][1,4]oxazin-3-one], it took 264 nM to reach half-maximal inhibition (IC50).

Regarding `O=C1CO[C@H]2CCN(C(=O)N3CCC(C#Cc4cccc(Cl)c4)CC3)C[C@H]2N1` [Example 129, (+)-(4aR,8aS)-6-[4-[2-(3-Chlorophenyl)ethynyl]piperidine-1-carbonyl]-4,4a,5,7,8,8a-hexahydropyrido[4,3-b][1,4]oxazin-3-one], the midpoint of inhibition, the IC50, lay at 103 nM.

For the compound `O=C1CO[C@H]2CCN(C(=O)N3CC(C#Cc4ccc(C(F)(F)F)cc4)C3)C[C@H]2N1` [Example 167, (4aR,8aS)-6-[3-[2-[4-(Trifluoromethyl)phenyl]ethynyl]azetidine-1-carbonyl]-4,4a,5,7,8,8a-hexahydropyrido[4,3-b][1,4]oxazin-3-one], the concentration for half-maximal inhibition (IC50) was 10 nM.

Regarding `O=C1CO[C@H]2CCN(C(=O)N3CC(SCc4ccc(C(F)(F)F)cc4F)C3)C[C@H]2N1` [Example 156, (4aR,8aS)-6-[3-[[2-Fluoro-4-(trifluoromethyl)phenyl]methylsulfanyl]azetidine-1-carbonyl]-4,4a,5,7,8,8a-hexahydropyrido[4,3-b][1,4]oxazin-3-one], 7 nM corresponded to half-maximal inhibition (IC50).

As for `O=C1CO[C@H]2CCN(C(=O)N3CC(C#Cc4ccccc4C(F)F)C3)C[C@H]2N1` [Example 182, (4aR,8aS)-6-[3-[2-[2-(Difluoromethyl)phenyl]ethynyl]azetidine-1-carbonyl]-4,4a,5,7,8,8a-hexahydropyrido[4,3-b][1,4]oxazin-3-one], the IC50 was determined as 14 nM.

Regarding `CN(C(=O)Cc1cc(C(F)(F)F)ccc1Cl)C1CCN(C(=O)N2CC[C@@H]3OCC(=O)N[C@@H]3C2)CC1` [Example 84, N-[1-[(4aR,8aS)-3-oxo-4,4a,5,7,8,8a-hexahydropyrido[4,3-b][1,4]oxazine-6-carbonyl]piperidin-4-yl]-2-[2-chloro-5-(trifluoromethyl)phenyl]-N-methylacetamide], the IC50 came out at 1140 nM.

`O=C1CO[C@H]2CCN(C(=O)N3CCC(C#Cc4ccc(Cl)cc4)CC3)C[C@H]2N1` [Example 130, (+)-(4aR,8aS)-6-[4-[2-(4-Chlorophenyl)ethynyl]piperidine-1-carbonyl]-4,4a,5,7,8,8a-hexahydropyrido[4,3-b][1,4]oxazin-3-one] had an IC50 of 82 nM.

Take `O=C1CO[C@H]2CCN(C(=O)N3CC(C#Cc4csc(Cl)c4)C3)C[C@H]2N1` [Example 188, (4aR,8aS)-6-[3-[2-(5-Chlorothiophen-3-yl)ethynyl]azetidine-1-carbonyl]-4,4a,5,7,8,8a-hexahydropyrido[4,3-b][1,4]oxazin-3-one]: half-maximal inhibition (IC50) was put at 13 nM.

Compound `O=C1CO[C@H]2CCN(C(=O)N3CC(C#CC4=CCCC4)C3)C[C@H]2N1` [Example 199, (4aR,8aS)-6-[3-[2-(Cyclopenten-1-yl)ethynyl]azetidine-1-carbonyl]-4,4a,5,7,8,8a-hexahydropyrido[4,3-b][1,4]oxazin-3-one] showed a half-inhibitory concentration (IC50) of 107 nM.

Take `COc1ccccc1C#CC1CN(C(=O)N2CC[C@@H]3OCC(=O)N[C@@H]3C2)C1` [Example 163, (4aR,8aS)-6-(3-((2-Methoxyphenyl)ethynyl)azetidine-1-carbonyl)hexahydro-2H-pyrido[4,3-b][1,4]oxazin-3(4H)-one]: the IC50 came to 49 nM.

One may read the IC50 as the point on the concentration scale where inhibition reaches its midpoint. The low end stands for inhibition by little substance, the high end for a need for much substance.
